Results published in ChEMBL document CHEMBL2010752, “Synthesis and biological evaluation of benzoisothiazole derivatives possessing N,N-dimethylformimidamide group as 5-HT₆ receptor antagonists” (Bioorg Med Chem, 2012).

What was measured:
Assay type in all cases: functional, cell-based
[1] = target: 5-hydroxytryptamine receptor 7 (Homo sapiens) (UniProt P34969); test: Antagonist activity at human 5HT7 receptor expressed in HEK293 cells assessed as inhibition of 5HT-induced intracellular calcium level at 10 uM incubated for 15 mins prior to 5HT-induction measured after 1 hr by fluo-4-AM-based fluorimetry
[2] = target: T1, 5-hydroxytryptamine receptor 6 (Homo sapiens, UniProt P50406); test: Antagonist activity at human recombinant 5HT6 receptor expressed in HeLa cells assessed as inhibition of 5HT-induced intracellular calcium level at 10 uM incubated for 15 mins prior to 5HT-induction measured after 1 hr by fluo-4-AM-based fluorimetry
[3] = target: T1, 5-hydroxytryptamine receptor 6; test: Antagonist activity at human recombinant 5HT6 receptor expressed in HeLa cells assessed as inhibition of 5HT-induced intracellular calcium level incubated for 15 mins prior to 5HT-induction measured after 1 hr by fluo-4-AM-based fluorimetry
[4] = target: T1, 5-hydroxytryptamine receptor 6; test: Antagonist activity at human 5HT6 receptor expressed in HEK293 cells assessed as inhibition of 5HT-induced intracellular calcium level at 10 uM incubated for 15 mins prior to 5HT-induction measured after 1 hr by fluo-4-AM-based fluorimetry
[5] = target: 5-hydroxytryptamine receptor 4 (Homo sapiens) (UniProt Q13639); test: Antagonist activity at human 5HT4 receptor expressed in HEK293 cells assessed as inhibition of 5HT-induced intracellular calcium level at 10 uM incubated for 15 mins prior to 5HT-induction measured after 1 hr by fluo-4-AM-based fluorimetry
Sequence of 5-hydroxytryptamine receptor 4 (Homo sapiens) (Q13639 whole entry): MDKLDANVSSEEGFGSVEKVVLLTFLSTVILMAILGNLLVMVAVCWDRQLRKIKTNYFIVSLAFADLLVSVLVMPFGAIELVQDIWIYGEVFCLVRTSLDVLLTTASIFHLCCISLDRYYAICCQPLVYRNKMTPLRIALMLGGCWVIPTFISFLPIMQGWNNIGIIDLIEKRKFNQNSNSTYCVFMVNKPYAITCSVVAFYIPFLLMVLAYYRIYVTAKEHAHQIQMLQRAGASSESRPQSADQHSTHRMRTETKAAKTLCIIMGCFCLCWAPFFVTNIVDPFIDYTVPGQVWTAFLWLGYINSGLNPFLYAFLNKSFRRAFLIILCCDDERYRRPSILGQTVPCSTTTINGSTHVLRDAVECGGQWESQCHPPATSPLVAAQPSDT

T1 sequence (P50406 whole entry): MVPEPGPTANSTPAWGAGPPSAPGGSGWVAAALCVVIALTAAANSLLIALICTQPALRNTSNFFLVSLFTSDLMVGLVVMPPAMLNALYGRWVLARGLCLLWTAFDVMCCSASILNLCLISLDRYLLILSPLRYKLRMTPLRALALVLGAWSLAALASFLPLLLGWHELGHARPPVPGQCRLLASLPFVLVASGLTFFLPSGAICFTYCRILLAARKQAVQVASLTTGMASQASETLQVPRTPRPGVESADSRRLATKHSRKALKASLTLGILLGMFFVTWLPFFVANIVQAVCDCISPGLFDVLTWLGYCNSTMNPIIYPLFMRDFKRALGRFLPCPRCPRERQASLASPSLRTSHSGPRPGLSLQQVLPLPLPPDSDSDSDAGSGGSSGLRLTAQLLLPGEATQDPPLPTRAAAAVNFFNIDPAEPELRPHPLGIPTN
Sequence of 5-hydroxytryptamine receptor 7 (Homo sapiens) (P34969 whole entry): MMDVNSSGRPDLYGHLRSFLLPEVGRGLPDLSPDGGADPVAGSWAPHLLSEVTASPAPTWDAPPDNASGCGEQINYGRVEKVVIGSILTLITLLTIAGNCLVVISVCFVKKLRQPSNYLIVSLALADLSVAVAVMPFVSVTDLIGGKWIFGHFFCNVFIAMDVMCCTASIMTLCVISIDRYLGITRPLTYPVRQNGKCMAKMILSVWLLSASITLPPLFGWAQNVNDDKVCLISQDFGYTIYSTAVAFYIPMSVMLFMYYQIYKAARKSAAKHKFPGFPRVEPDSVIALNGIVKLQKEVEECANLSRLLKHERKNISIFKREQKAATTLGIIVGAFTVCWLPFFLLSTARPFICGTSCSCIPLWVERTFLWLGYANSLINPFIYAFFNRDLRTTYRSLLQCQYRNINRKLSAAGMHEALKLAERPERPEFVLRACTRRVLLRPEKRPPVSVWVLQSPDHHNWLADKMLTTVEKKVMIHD

SMILES | inhibition [1] [%] | inhibition [2] [%] | IC50 [3] [nM] | inhibition [4] [%] | inhibition [5] [%]
Cc1ccc(S(=O)(=O)Nc2ccc3snc(/N=C/N(C)C)c3c2)cc1 | 68.8 | 84.3 | 360 | 86.5 | 21.9
CN(C)/C=N/c1nc2cc(NS(=O)(=O)c3cccc4ccccc34)ccc2s1 |  | 25.5 |  |  | 
CN(C)/C=N/c1nsc2ccc(NS(=O)(=O)c3ccc(F)cc3)cc12 |  | 20.2 |  |  | 
CN(C)/C=N/c1nsc2ccc(NS(=O)(=O)c3ccc(Cl)cc3)cc12 | 40.2 | 51.1 | 3600 | 53.9 | 11.6
CC(C)c1ccc(S(=O)(=O)Nc2ccc3snc(/N=C/N(C)C)c3c2)cc1 |  | 27 |  |  | 
CN(C)/C=N/c1nsc2ccc(NS(=O)(=O)c3ccc([N+](=O)[O-])cc3)cc12 |  | 9.8 |  |  | 
CN(C)/C=N/c1nsc2ccc(NS(=O)(=O)c3cccc4cccnc34)cc12 |  | 12.1 |  |  | 
CN(C)/C=N/c1nc2cc(NS(=O)(=O)c3ccc4ccccc4c3)ccc2s1 |  | 66.3 |  |  | 
CN(C)/C=N/c1nsc2ccc(NS(=O)(=O)c3ccc4ccccc4c3)cc12 | 28.9 | 99.1 | 440 | 98.8 | 17.4
CN(C)/C=N/c1nsc2ccc(NS(=O)(=O)c3c(F)cccc3F)cc12 |  | 10.8 |  |  | 
CN(C)/C=N/c1nsc2ccc(NS(=O)(=O)c3ccccc3)cc12 |  | 42.6 |  |  | 
CN(C)/C=N/c1nsc2ccc(NS(=O)(=O)c3cccc4ccccc34)cc12 |  | 43.5 |  |  | 
